Source: patent publication US20230041334A1, “METHODS AND COMPOSITIONS FOR SMOKING CESSATION” (BEHAVIORAL DIAGNOSTICS, LLC, priority 2019, published 2023)

How the values were obtained:
Type in all cases: in vivo, human
[1] = system: Smokers interested in stopping smoking; test: Diffusing capacity of the lung for carbon monoxide (DLCO) in the sildenafil trial; conditions: 20 mg/day
Experimental: (§1) Smokers interested in stopping smoking were imaged using a dual energy computerized tomography (DECT) protocol to determine baseline lung density and perfusion, then randomized to receive either 20 mg of sildenafil or placebo each day. Subjects were then followed each month for three months (i.e., 30, 60 and 90 days) to asses changes in lung density via DECT and alterations in the diffusing capacity of the lung for carbon monoxide (DLCO) (e.g., improved gas exchange) in conjunction with the determination of the level of smoking cessation by means of serum cotinine levels. As per standard protocol, the research team was blinded to treatment group until the subject had exited the trial and DECT image analysis was completed. Importantly, because serum cotinine levels were used to determine smoking cessation status, subjects were not allowed to use nicotine replacement therapy. However, in order to encourage the likelihood of smoking cessation, subjects were given incentive-based programming.

[2] = system: Smokers interested in stopping smoking; test: Randomized placebo-controlled sildenafil smoking cessation trial with incentive-based programming; cessation determined by serum cotinine
Experimental: as §1
In this paradigm, subjects are financially rewarded for smoking cessation (see, for example, Alford et al., 2010, PNAS USA, 107:7485-90; Iyer et al., 2016, Am. J. Resp. Crit. Care Med., 193:652-61).
The results were analyzed from the first 48 subjects who enrolled in the study. Briefly, the subjects in the cohort were largely of European ancestry, and the cohort was evenly balanced between males and females, with subjects of both genders tending to be between 30 and 60 years of age. As evidenced by their pre-experiment serum cotinine levels, they also tended to be moderate to heavy smokers.
In order to qualify for the financial incentive of $400, the subjects had to complete all 4 visits (intake and 3 follow-up visits at 30, 60 and 90 days) and had to quit smoking as evidenced by serum cotinine levels. In total, of the first 48 subjects enrolled in the study, 9 subjects completed just the intake, 7 subjects participated in both the intake and first visit, and 31 subjects completed all 4 visits in the study (Table 3). Data from one subject who dropped immediately from the study is not available.

[3] = system: Smokers interested in stopping smoking; test: Lung density (inflammation) by dual energy computerized tomography (DECT) in the sildenafil trial; conditions: 20 mg/day
Experimental: as §1

[4] = group who successfully stopped smoking for 90 days on sildenafil
[5] = sildenafil without smoking cessation

CCCc1nn(C)c2c(=O)[nH]c(-c3cc(S(=O)(=O)N4CCN(C)CC4)ccc3OCC)nc12 [Sildenafil, sildenafil]
Change in DLCO [1, 4]: improvement in DLCO
Change in DLCO [1, 5]: no significant change
Cessation: <50% reduction of cotinine (number of subjects) ([2]; 20 mg sildenafil each day, N=24): 3
Cessation: Visits with <2 ng/ml cotinine (number of visits) ([2]; 20 mg sildenafil each day, N=24, 30-, 60- and 90-day visits): 36
Cessation: Quit at 90 days (number of subjects) ([2]; 20 mg sildenafil each day, N=24, by serum cotinine): 12
Follow-up visits with negative serum cotinine values (<2 ng/ml) ([2]; 20 mg/day, 30-, 60- and 90-day visits, vs. placebo p<0.002, Exact Test): 36 of 72
Females having achieved abstinence at 90 days (negative serum cotinine) ([2]; 20 mg/day, females): 6
Full or partial response of treatment (≥average 50% reduction of intake cotinine levels compared to average of 30-, 60- and 90-day visits) (subjects) ([2]; 20 mg/day, intention to treat, vs. placebo p<0.02 Exact Test): 15 of 24
Complete cessation (subjects) ([2]; 20 mg/day, intention to treat, vs. placebo p<0.09, Exact Test): 12 of 24
Males having achieved abstinence at 90 days (negative serum cotinine) ([2]; 20 mg/day, males): 6
Change in lung density (inflammation) [3, 4]: significant loss of lung density
Change in lung density (inflammation) [3, 5]: no significant change
